Source: PubChem BioAssay (NCI)
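How tested: cells in 96-well plates exposed to compound for 48 hours at five concentrations. The concentration for full growth arrest is given as TGI.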

Key:
Assay in all cases: growth of human tumour cells (NCI), 48 h
A549 NSCLC = test system: A549 NSCLC
HCT-15 colon = test system: HCT-15 colon
MALME-3M melanoma = test system: MALME-3M melanoma
SR leukemia = test system: SR leukemia
RPMI-8226 leukemia = test system: RPMI-8226 leukemia
OVCAR-3 ovarian = test system: OVCAR-3 ovarian
SF-539 CNS = test system: SF-539 CNS
786-0 renal = test system: 786-0 renal
T-47D breast = test system: T-47D breast
PC-3 prostate = test system: PC-3 prostate
NCI-H226 lung = test system: NCI-H226 lung
OVCAR-4 ovarian = test system: OVCAR-4 ovarian
U251 CNS = test system: U251 CNS
DU-145 prostate = test system: DU-145 prostate
LOX IMVI melanoma = test system: LOX IMVI melanoma
NCI-H23 lung = test system: NCI-H23 lung
HCC-2998 colon = test system: HCC-2998 colon
UO-31 renal = test system: UO-31 renal
K-562 leukemia = test system: K-562 leukemia
SK-MEL-28 melanoma = test system: SK-MEL-28 melanoma
MDA-MB-435 = test system: MDA-MB-435
NCI/ADR-RES ovarian = test system: NCI/ADR-RES ovarian
ACHN renal = test system: ACHN renal
IGROV1 ovarian = test system: IGROV1 ovarian
HS 578T breast = test system: HS 578T breast
HOP-62 NSCLC = test system: HOP-62 NSCLC
CAKI-1 renal = test system: CAKI-1 renal
MDA-MB-231 breast = test system: MDA-MB-231 breast
COLO 205 colon = test system: COLO 205 colon
SW-620 colon = test system: SW-620 colon
M14 melanoma = test system: M14 melanoma
NCI-H460 lung = test system: NCI-H460 lung
CCRF-CEM leukemia = test system: CCRF-CEM leukemia
OVCAR-8 ovarian = test system: OVCAR-8 ovarian
SF-295 CNS = test system: SF-295 CNS
RXF 393 renal = test system: RXF 393 renal
HT29 colon = test system: HT29 colon
KM12 colon = test system: KM12 colon
TK-10 renal = test system: TK-10 renal
HL-60(TB) leukemia = test system: HL-60(TB) leukemia
SNB-19 CNS = test system: SNB-19 CNS
MOLT-4 leukemia = test system: MOLT-4 leukemia
SK-MEL-5 melanoma = test system: SK-MEL-5 melanoma
SN12C renal = test system: SN12C renal
OVCAR-5 ovarian = test system: OVCAR-5 ovarian
MDA-N = test system: MDA-N
SF-268 CNS = test system: SF-268 CNS
HCT-116 colon = test system: HCT-116 colon
UACC-257 melanoma = test system: UACC-257 melanoma
SK-OV-3 ovarian = test system: SK-OV-3 ovarian
EKVX NSCLC = test system: EKVX NSCLC
NCI-H522 lung = test system: NCI-H522 lung
SK-MEL-2 melanoma = test system: SK-MEL-2 melanoma
A498 renal = test system: A498 renal
HOP-92 NSCLC = test system: HOP-92 NSCLC

Measured: TGI

COC(=O)[C@@H]1CN(C(C)=O)C(=O)N1C(=O)OCc1ccccc1
> 100 µM: all assays above
